Molecules are shown by their SMILES.

The test system of assay [1] is HT29 colon cancer cells. The experiment in a line: BrdU incorporation assay in HT29 colon cancer cells. Type of assay: cell-based. As to conditions: 200 μM. As to the method:
Cells were cultured in Dulbecco's Modified Eagle Medium (DMEM) supplemented with 10% fetal calf serum, glutamine and antibiotics (100,000 units/L penicillin and 100 mg/L streptomycin sulfate).
The involvement of MEDICA drugs in signal transduction pathways related to immuno-modulatory mechanisms have led the inventors to further investigate the effect of the MEDICA drugs in different disorders associated with abnormal immune reaction. Since cancerous processes may be promoted as a result of interruption of the Th1/Th2 balance, the possible beneficial effect of the MEDICA drugs on tumor proliferation and progression have been next examined. The effect of different concentrations M16αα on cell proliferation was first examined in vitro using the HT29 colon cancer cells as a model for colon cancer. Cells were cultured in the presence of different concentrations of M16αα (50, 100, and 200 μM). Samples obtained from days 1, 2, 3 and 6 were analyzed for cell number using the trypan blue exclusion assay. Proliferation was measured by BrdU incorporation assay.

The subject of assay [2] is liver APP (SAP, SAA, α-fibrinogen) and IL-6 gene expression. The experiment in a line: Liver Acute Phase Proteins and IL-6 gene expression in EAE mice (real time PCR). To be noted: EAE mice 60 mg/kg/day 12 days by gavage. Type of assay: in vivo. Here is the method: To further investigate the preventive potential of MEDICA drugs, and specifically of M16αα on EAE model, the effect of these drugs on different pathways involving activation of the immune system have been next examined. Therefore, female mice were treated with M16αα (60 mg/kg/day) or vehicle (1% CMC, the control group) for 12 days by gavage. On the third day EAE has been induced by injection of the MOG35-55 peptide. Nine days following MOG35-55 peptide immunization, mice were anesthesized and sacrificed. Spleenocytes were prepared and were stimulated in vitro with either MOG (100 μg/ml) or LPS (50 μg/ml) and the activation of STAT3 was analyzed by Western blot using anti p-STAT3 (Y705) and anti GP130 antibodies. Liver was immediately frozen in liquid nitrogen and kept at −70 until used for protein and RNA preparation. Total RNA was prepared and analyzed by real time PCR for SAP, SAA, α-fibrinogen and IL-6 gene expression.

The test system of assay [3] is U266 cells. Description: Growth of Multiple Myeloma U266 cells, Trypan Blue exclusion. To be noted: 200 μM, day 6. Type of assay: cell-based. As to the method: Growth Suppression by M16αα of Multiple Myeloma (MM) cells. MM cells were incubated in RPMI 1640 medium in the presence of added M16αα as indicated. Cell number was determined daily by Trypan Blue exclusion.
The inhibitory effect of MEDICA drugs on colon tumor cell proliferation, presumably via activation of apoptosis, encouraged the inventors to further investigate the potential beneficial effect of these compounds on other malignancies. The inventors therefore next examined the effect of the MEDICA drugs using the Multiple myeloma model. U-266 and RPMI-8226 cell lines served as cell models for MM. MM cells were incubated in RPMI 1640 medium in the presence of M16αα as indicated. Cell number was determined daily by Trypan Blue exclusion assay. […] It should be noted that generally, these cells were more sensitive even to lower concentrations of M16αα.

The subject of assay [4] is fibrinogen α mRNA. Description: Fibrinogen mRNA expression in IL-6-stimulated HepG2 cells (real time RT-PCR). As to conditions: 200 mM M16αα 40 h, control as well as IL-6 (20 ng/ml, last 15 h) induced cells, normalized by GAPDH. Type of assay: cell-based, human. As to the method: HepG2 cells were incubated for 40 h with […] M16αα. IL-6 (20 ng/ml) was added for the last 15 h. Total RNA was prepared and was analyzed by real time RT-PCR for fibrinogen a mRNA. Transcript levels were normalized by GAPDH.
The hypolipidemic effect of both M16ααα and/or M16ββ (MEDICA drugs) and its application in the treatment of Metabolic Syndrome, led the inventors to try and examine the effect of these drugs on another crucial risk factor in Metabolic Syndrome CVD patients, namely, the inflammatory indications. These indications are identified by markers like C-reactive protein (CRP), Serum amyloid A (SAA), fibrinogen and ICAM that promote atherosclerotic CVD. To evaluate the possible anti-inflammatory effect of MEDICA drugs, the inventors first examined the effect of M16αα, on the expression of different acute phase proteins (APP). Human liver cells (HepG2 cells) were stimulated with IL-6 and incubated with the MEDICA drug, M16αα. Total RNA was analyzed by real time PCR for expression of mRNA of different acute phase proteins (APP).

The subject of assay [5] is gp130 transcript. Description: gp130 transcript levels in HepG2 cells (real time RT-PCR). Type of assay: cell-based, human. As to conditions: 200 μM up to 40 h (2, 4, 8, 24, 40 h), normalized with GAPDH. As to the method: As shown by FIGS. 5-7, treatment of M16αα results in reduction in the protein levels of gp130, which is the tyrosine kinase receptor upstream to STAT3 in this pathway. The inventors thus next examined whether M16αα affects gp130 at the transcription level. Therefore, HepG2 cells were incubated with M16αα (200 μM) for up to 40 h. Total RNA was prepared at 2 h, 4 h, 8 h, 24 h and 40 h, and gp130 transcription was analyzed by real time RT-PCR and normalized with GAPDH.
For orientation: Quantitative PCR measures a nucleic acid by following its amplification.

As for `CC(C)(CCCCCCCCCCCCC(C)(C)C(=O)O)C(=O)O` [M16αα, 2,2,15,15-tetramethyl-hexadecanedioic acid], the BrdU incorporation result in assay [1] is recorded as “significantly reduces”. For the same compound, the “liver APP and IL-6 gene expression” value in assay [2] is reported as “robustly suppressed”. In addition, in assay [3], the cell proliferation result is “complete inhibition”. The “fibrinogen mRNA levels” value in assay [4] was “clearly reduced”. In addition, the gp130 transcript levels result in assay [5] is on record as “remained unaffected”.

These data come from patent US20100113599A1, “AMPHIPATHIC CARBOXYLATES FOR THE TREATMENT OF IMMUNE-RELATED DISORDERS” (Syndromex Ltd. c/o Yissum Research Development Company, of, priority 2007, published 2010).
